What was measured:
[1] = Lipid bilayers on MS-PPE as barriers to superquenching by AQS, flow cytometry; settings: 10 μM AQS
Description: FIG. 15 graphically illustrates flow cytometric evaluations of different lipids that involved formation of supported lipid bilayers on MS-PPE for the purpose of forming a barrier to quenching by AQS. Lipids tested were 2 mM DPPC, 1 mM egg-PC, and 2 mM DMPG. Fluorescence was normalized to that of MS-PPE without lipids and in absence of AQS. −AQS and +AQS refer to absence and presence of 10 μM AQS. The errors bars represent SD of means of normalized histograms obtained for triplicates.
Small unilamellar vesicles (SUVs) were prepared using a 2 mM solution of DPPC, 1 mM egg-PC, or 2 mM DMPG in chloroform. The lipid was dried by nitrogen gas followed by vacuum. The dried lipid was resuspended in phosphate buffer saline (PBS), pH 7.4, and incubated at 37° C. for 10 min, then sonicated to optical clarity in a sonication bath (Branson Cleaning Equipment Co., Shelton, Conn.).
Lipid bilayers were assembled on microspheres as previously described (Buranda et al. Langmuir 19:1654-1663 (2003); Bayerl & Bloom, Biophys J 58:357-362 (1990)). […]
Bead suspensions of 2.5×10^5 PPE-coated microspheres in 200 μL PBS were analyzed using a FACScan flow cytometer (Becton-Dickinson, Sunnyvale, Calif.) with excitation at 488 nm. Fluorescence signals were acquired on the FL-1 channel (525 nm) using log amplification and analyzed with the CellQuest software.

[2] = test system: 80:20 (molar ratio) DMPG and DMPC bilayer on porous silica beads; experiment: Suspension study: melittin on DMPG/DMPC 80:20 bilayers on fluorescein-containing porous beads; assay type: biochemical; settings: 220 μM melittin (FIG. 6 legend prints 220 pM), 25° C.
Description: (§1) Experimental procedures were similar to the TRITON X-100 detergent based analysis. For experiments with α-toxin, three different toxin concentrations: 15, 45 and 250 μg/mL were used at 37° C. and 25° C. Beads coated with EPC were used. In the experiments with melittin, 220 μM melittin was used with beads coated with either 100% EPC, 10:90 (molar ratio) mixture of DMPG and EPC or an 80:20 mixture of DMPG and DMPC. All melittin experiments were conducted at 25° C.
In view of the results shown in FIG. 5, the effects of melittin on other mixtures of lipids were examined. […] A 80:20 mixture (molar ratio) of DMPG and DMPC was used to form the lipid bilayers used in this experiment. The increase in fluorescence intensity due to the membrane-melittin interaction, which results in the release of dye from porous beads was about 10 fold. Although this release was not as high as that observed when using TRITON X-100 detergent, it is notable in comparison to the release with α-toxin.

[3] = test system: 90:10 (molar ratio) EPC and DMPG bilayer on porous silica beads; experiment: Suspension study: melittin on EPC/DMPG 90:10 bilayers on fluorescein-containing porous beads; assay type: biochemical; settings: highly concentrated melittin, 25° C.
Description: as §1
The interaction of highly concentrated melittin solutions was examined with membranes supported on fluorescein containing porous beads, where the membranes contained 100% EPC or a 90:10 mixture (molar ratio) of EPC and DMPG (a negatively charged lipid). […] In the absence of peptide, the amount of dye leakage from the EPC/DMPG beads was similar to that for EPC coated beads.

[4] = test system: DMPG lipid bilayer supported on MS-PPE; experiment: Superquenching flow cytometric assay for disruption of DMPG lipid bilayer supported on MS-PPE; assay type: biochemical; settings: for quenching of the MS-PPE after addition of peptide / association constant with DMPG (reciprocal of the point of half saturation): 10 μM AQS; for quenching of the MS-PPE after addition of peptide: sMLT 3.8 μM, nMLT 1.6 μM, TRITON X-100 0.25% (w/v); for association constant with DMPG (reciprocal of the point of half saturation): binding curves, flow cytometry
Description: Lipid bilayers were disrupted by adding TRITON X-100 detergent to the bead suspension to a final concentration of 0.25% (w/v).
Bead suspensions of 2.5×10^5 DMPG-coated MS-PPE in 200 μL of PBS were analyzed using a FACScan flow cytometer (Becton-Dickinson, Sunnyvale, Calif.) with excitation at 488 nm. Fluorescence signals were acquired on FL-1 channel (525 nm) using log amplification and analyzed with the CellQuest software. Kinetic analysis of disruption of supported lipid bilayer by melittin was performed by acquiring real-time data with continuous mixing of samples (10^6 MS-PPE in 800 μl of PBS) using a magnetic stirrer. The raw data were analyzed using IDL Query software developed by Bruce Edwards (Cancer Center, University of New Mexico, Albuquerque, N. Mex.).
Because an anionic lipid was used to form a lipid bilayer around MS-PPE, it was expected that MLT will disrupt the DMPG lipid bilayer by such a detergent-like action. This was tested by adding 10 μM AQS to DMPG-coated MS-PPE followed by treatment with one of the following: TRITON X-100 detergent, synthetic MLT (sMLT), or natural MLT (nMLT) and immediately reading the fluorescence by flow cytometry. […] These histograms resemble the ones reported previously for MS-PPE, without a lipid coating, in absence and in presence of AQS.
From FIG. 18, the association constant (corresponding to the reciprocal of the point of half saturation) for nMLT and sMLT with DMPG were 5×10^6 M^−1 and 1.7×10^6 M^−1, respectively. […] Lower concentrations of nMLT, in comparison to sMLT, were required to disrupt the DMPG lipid bilayer. This might be attributed to the fact that nMLT contains some phospholipase A2 (PLA2) as a contaminant. PLA2 has a high affinity for anionic phospholipids, with an association constant of 0.5×10^10 M^−1 (Kim et al., Anal. Chem. 250, 109-116 (1997)), which is about 3000 fold higher than that of MLT. Although PLA2 activity requires calcium, which is not present in the experimental system, it has been reported that even upon addition of EDTA to natural MLT, PLA2 maintains its activity, probably due to formation of a tight complex with calcium with PLA2 (Dempsey, C. E. Biochim. Biophys. Acta 1990, 1031, 143-161).
The kinetics of disruption of supported lipid bilayer by MLT were monitored by measuring real-time changes in fluorescence intensity by flow cytometry (FIG. 19). Suspensions of 10^6 DMPG-coated MS-PPE in 800 μL of PBS were treated with AQS at a final concentration of 10 μM, then with either sMLT, TRITON X-100 detergent, or no treatment. […] Treatment with sMLT in the absence of AQS led to an increase in normalized fluorescence (FIG. 19, trace A). This can be attributed to disruption of the lipid bilayer by sMLT, and is consistent with a reversal of the slight quenching of fluorescence caused by the formation of a DMPG lipid bilayer over MS-PPE. Addition of AQS alone to DMPG-coated MS-PPE (FIG. 19, trace C) led to a 20% reduction in fluorescence as reported earlier. Addition of TRITON X-100 detergent to DMPG-coated MS-PPE after the addition of AQS (first dip in trace E, FIG. 19) caused immediate decrease in fluorescence to ˜10% of its original value (second dip in trace E, FIG. 19). In contrast, addition of sMLT, after the addition of AQS, (FIG. 19, trace D) led to a gradual reduction of fluorescence intensity to ˜20% of the original value. Although MLT forms dimers at high concentrations (Dempsey, C. E. Biochim. Biophys. Acta 1990, 1031, 143-161), it is monomeric at the concentrations used in this study. On the other hand, TRITON X-100 detergent forms micelles at the concentration used in this study.

[5] = test system: EPC lipid bilayer on porous silica beads; experiment: Suspension study: disruption of EPC bilayers on fluorescein-containing porous silica beads, release of dye into supernatant; assay type: biochemical; settings: all three concentrations 15, 45 and 250 μg/mL
Description: Lipid coatings on beads were disrupted using 10% TRITON X-100 detergent. Each sample in micro-centrifuge tubes contained 5 mg of lipid bilayer coated, fluorescein entrapped beads in 200 μL of Tris buffer. Samples were centrifuged and 100 μL aliquots of supernatant were mixed with either 100 μL of Tris buffer or 100 μL of 10% TRITON X-100 detergent in separate centrifuge tubes. The fluorescence intensity of each mixture was immediately (time=0) recorded. Each mixture was mixed with its respective bead sample in centrifuge tube and incubated at 25° C. in the dark. After 30 min, samples were centrifuged and fluorescent intensity of the supernatants was measured. Beads were resuspended in their respective supernatants. Fluorescence intensity was again measured at 90 and 150 min.
as §1
Previous suspension studies on disruption of lipid bilayers have been performed with small unilamellar vesicles where disruption of the lipid bilayer membranes was detected by monitoring the unquenching of a highly concentrated, encapsulated dye. In the present work disruption was monitored via release of fluorescein dye from porous beads, by measuring the increase in fluorescence intensity of the supernatant at 520 nm. Beads were first suspended in Tris buffer containing the disruptor. After selected time periods, beads were sedimented by centrifuging and a portion of the supernatant was taken for the measurement. The measured portion was added back to the bead sample to permit continuous monitoring. The scattering effect that was present in vesicle based studies was minimized by measuring only the supernatant after centrifugation of the beads.

[6] = test system: supported lipid bilayer surrounding a porous bead that contains fluorescein; experiment: Kinetics of supported lipid bilayer disruption by α-toxin, pH gradient, flow cytometry; assay type: biochemical
Text: FIGS. 4A-B illustrates the effects of alpha-toxin on lipid bilayer integrity. FIG. 4A graphically illustrates dose-dependent release of fluorescent dye from a lipid bilayer coated microbead after introduction of different concentrations of alpha-toxin, a membrane-associated pore-forming protein from Staphylococcus aureus. The normalized fluorescence intensity (at 520 nm) of the supernatant is plotted versus time for EPC-coated, fluorescein filled porous beads when using different concentrations of α-toxin added. 10% Triton was added after 150 min. FIG. 4B illustrates the kinetics of disrupting a supported lipid bilayer by α-toxin as monitored by recording changes in fluorescence intensity every 2 minutes by flow cytometry. The lipid bilayer surrounded a porous bead that contains a pH-reactive molecule (fluorescein), and the pH outside the beads was adjusted to 11.0, whereas inside the beads the pH was 2.6. As illustrated, increasing amounts of c′-toxin increases the fluorescence emitted from within the beads.
In another experiment a lipid bilayer surrounding a porous bead that contains a pH-reactive molecule (fluorescein) was exposed to α-toxin. The pH outside the beads was adjusted to 11.0, whereas inside the beads the pH was 2.6. The kinetics of disruption of supported lipid bilayer by α-toxin were monitored by recording changes in fluorescence intensity every 2 minutes by flow cytometry. For the first 8 minutes there was no significant change in fluorescence intensity (FIG. 4B). However, after 8 minutes there was a gradual increase in fluorescence intensity (FIG. 4B) resulting from insertion of α-toxin into the supported lipid bilayer thus forming channels permeable to hydrogen cations and hydroxyl ions, which reduces the difference in the pH outside and inside the microspheres. […] This can be attributed to insertion of many α-toxin channels at this high concentration leading to disruption of the lipid bilayer and immediate equilibration of the pH inside and outside the porous microspheres.

In the case of `CCCCCCCCCCCCCCCC(=O)OC[C@H](COP(=O)([O-])OCC[N+](C)(C)C)OC(=O)CCCCCCCCCCCCCCC` [DPPC, 1,2-dipalmitoyl-sn-glycero-3-phosphatidylcholine], the “fluorescence with quencher relative to MS-PPE and quencher without the lipid” value [1] is reported as ~10 fold and the “reduction (quenching) of polymer fluorescence of lipid-coated MS-PPE on addition of AQS” value [1] is reported as ~40%.
In the case of `CC[C@H](C)[C@H](NC(=O)CN)C(=O)NCC(=O)N[C@@H](C)C(=O)N[C@H](C(=O)N[C@@H](CC(C)C)C(=O)N[C@@H](CCCCN)C(=O)N[C@H](C(=O)N[C@@H](CC(C)C)C(=O)N[C@H](C(=O)N[C@H](C(=O)NCC(=O)N[C@@H](CC(C)C)C(=O)N1CCC[C@H]1C(=O)N[C@@H](C)C(=O)N[C@@H](CC(C)C)C(=O)N[C@H](C(=O)N[C@@H](CO)C(=O)N[C@@H](Cc1c[nH]c2ccccc12)C(=O)N[C@H](C(=O)N[C@@H](CCCCN)C(=O)N[C@@H](CCCNC(=N)N)C(=O)N[C@@H](CCCCN)C(=O)N[C@@H](CCCNC(=N)N)C(=O)N[C@@H](CCC(N)=O)C(=O)N[C@@H](CCC(N)=O)C(N)=O)[C@@H](C)CC)[C@@H](C)CC)[C@@H](C)O)[C@@H](C)O)C(C)C)C(C)C` [melittin], the “increase in fluorescence intensity due to release of dye” value [2] is reported as “about 10 fold” and the “release of dye from EPC/DMPG coated beads compared with 100% EPC coated beads” value [3] is reported as “slightly higher”.
With “nMLT: natural melittin from Sigma, contains some phospholipase A2 as a contaminant” the “quenching of the MS-PPE after addition of peptide” value [4] was “comparable to that occurring on addition of TRITON X-100 detergent” and the “association constant with DMPG (reciprocal of the point of half saturation)” value [4] was 5e+06 M⁻¹.
In the case of “sMLT: synthetic melittin obtained from Sigma”, the “quenching of the MS-PPE after addition of peptide” value [4] is reported as “comparable to that occurring on addition of TRITON X-100 detergent”, the “fluorescence intensity after addition, % of original value (real-time kinetics)” value ([4]; 10^6 DMPG-coated MS-PPE in 800 μL PBS, after 10 μM AQS) is reported as ~20% and the “association constant with DMPG (reciprocal of the point of half saturation)” value [4] is reported as 1.7e+06 M⁻¹.
For “α-toxin: membrane active pore-forming protein secreted by Staphylococcus aureus, ˜33 kDa”, the “increase in fluorescence intensity after 150 min” value ([5]; 25° C.) was “about 3 fold”, the “increase in fluorescence intensity after 150 min” value ([5]; 37° C.) was “about 6.5 fold” and the “concentration at which increase in fluorescence intensity reached its maximum” value ([6]; pH 11.0 outside, pH 2.6 inside beads) was 15 µg/mL. For the same molecule, the “time without significant change in fluorescence intensity before gradual increase” value ([6]; pH 11.0 outside, pH 2.6 inside beads, read every 2 minutes) was 8 min and the “change in fluorescence intensity” value ([6]; α-toxin 45 μg/mL) was “did not cause a change in fluorescence intensity different from the baseline”.

Reference: patent US8465983B1, “Detection and delivery systems utilizing supported lipid bilayers” (priority 2005, dated 2013)
